Data taken from patent US7812026B2, “Imidazole derivatives having a positive allosteric GABAB receptor modulator effect and methods of use” (AstraZeneca AB, priority 2005, dated 2010).

What follows are molecules tested against T1, GABAB receptor (Homo sapiens, UniProt O75899+Q9UBS5) (assay: [35S]-GTPγS binding assay, potency of PAM). Conditions: potency of the positive allosteric modulator; log EC50 for GABA plotted against log concentration of modulator.
T1 construct: expressed in transfected cells; host or cells: CHO cells (membranes)
Assay type: biochemical
Description: [^35S]-GTPγS binding assays were performed at 30° C. for 45 min in membrane buffer (100 mM NaCl, […], 1 mM EDTA, 50 mM HEPES, pH 7.4) containing 0.025 μg/μl of membrane protein (prepared from the cell lines described above) with 0.01% bovine serum albumin (fatty acid free), 10 μM GDP, 100 μM DTT and 0.53 nM [^35S]-GTPγS (Amersham-Pharmacia Biotech) in a final volume of 200 μl. Nonspecific binding was determined in the presence of 20 μM GTPγS. The reaction was started by the addition of GABA at concentration between 1 mM and 0.1 nM in the presence or absence of the required concentration of PAM. The reaction was terminated by addition of ice-cold wash buffer (50 mM Tris-HCl, 5 mM MgCl2, 50 mM NaCl, pH 7.4) followed by rapid filtration under vacuum through Printed Filtermat A glass fiber filters (Wallac) (0.05% PEI treated) using a Micro 96 Harvester (Skatron Instruments). The filters were dried for 30 min at 50° C., then a paraffin scintillant pad was melted onto the filters and the bound radioactivity was determined using a 1450 Microbeta Trilux (Wallac) scintillation counter.
GABA dose-response curves in the presence and absence of test compounds were constructed using the 4-parameter logistic equation, y=ymax+((ymin−ymax)/1+(x/C)^D), where C=EC50 and D=slope factor.
The potency of PAM in GTPγS assays was determined by plotting the log EC50 for GABA against the log concentration of the positive allosteric modulator in the presence of which the measurement was performed.

T1 sequence (Q9UBS5 15-961 limits assumed): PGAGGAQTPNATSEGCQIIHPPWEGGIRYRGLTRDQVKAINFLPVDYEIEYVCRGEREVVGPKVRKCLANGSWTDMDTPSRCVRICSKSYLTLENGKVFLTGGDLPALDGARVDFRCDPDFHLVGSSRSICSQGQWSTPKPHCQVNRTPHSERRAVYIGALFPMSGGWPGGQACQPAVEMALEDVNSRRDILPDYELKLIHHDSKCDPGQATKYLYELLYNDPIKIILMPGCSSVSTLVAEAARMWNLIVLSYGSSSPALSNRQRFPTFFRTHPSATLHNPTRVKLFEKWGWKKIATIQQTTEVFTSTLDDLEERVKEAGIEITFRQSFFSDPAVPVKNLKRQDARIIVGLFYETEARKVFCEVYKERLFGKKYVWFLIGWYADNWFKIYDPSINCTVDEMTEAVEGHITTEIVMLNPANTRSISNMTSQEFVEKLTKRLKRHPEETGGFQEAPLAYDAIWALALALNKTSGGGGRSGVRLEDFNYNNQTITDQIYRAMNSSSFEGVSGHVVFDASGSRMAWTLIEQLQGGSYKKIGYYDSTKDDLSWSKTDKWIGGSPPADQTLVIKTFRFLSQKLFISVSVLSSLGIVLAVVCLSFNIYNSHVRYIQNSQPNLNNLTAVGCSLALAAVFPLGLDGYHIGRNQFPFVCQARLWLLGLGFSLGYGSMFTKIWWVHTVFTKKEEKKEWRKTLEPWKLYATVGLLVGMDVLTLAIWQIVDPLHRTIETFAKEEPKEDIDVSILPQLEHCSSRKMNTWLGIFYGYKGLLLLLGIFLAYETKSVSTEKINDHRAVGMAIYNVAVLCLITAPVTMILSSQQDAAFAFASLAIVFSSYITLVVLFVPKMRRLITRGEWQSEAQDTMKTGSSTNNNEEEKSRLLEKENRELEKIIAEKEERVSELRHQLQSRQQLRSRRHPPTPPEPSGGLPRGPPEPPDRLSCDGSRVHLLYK
T1 sequence (O75899 42-941): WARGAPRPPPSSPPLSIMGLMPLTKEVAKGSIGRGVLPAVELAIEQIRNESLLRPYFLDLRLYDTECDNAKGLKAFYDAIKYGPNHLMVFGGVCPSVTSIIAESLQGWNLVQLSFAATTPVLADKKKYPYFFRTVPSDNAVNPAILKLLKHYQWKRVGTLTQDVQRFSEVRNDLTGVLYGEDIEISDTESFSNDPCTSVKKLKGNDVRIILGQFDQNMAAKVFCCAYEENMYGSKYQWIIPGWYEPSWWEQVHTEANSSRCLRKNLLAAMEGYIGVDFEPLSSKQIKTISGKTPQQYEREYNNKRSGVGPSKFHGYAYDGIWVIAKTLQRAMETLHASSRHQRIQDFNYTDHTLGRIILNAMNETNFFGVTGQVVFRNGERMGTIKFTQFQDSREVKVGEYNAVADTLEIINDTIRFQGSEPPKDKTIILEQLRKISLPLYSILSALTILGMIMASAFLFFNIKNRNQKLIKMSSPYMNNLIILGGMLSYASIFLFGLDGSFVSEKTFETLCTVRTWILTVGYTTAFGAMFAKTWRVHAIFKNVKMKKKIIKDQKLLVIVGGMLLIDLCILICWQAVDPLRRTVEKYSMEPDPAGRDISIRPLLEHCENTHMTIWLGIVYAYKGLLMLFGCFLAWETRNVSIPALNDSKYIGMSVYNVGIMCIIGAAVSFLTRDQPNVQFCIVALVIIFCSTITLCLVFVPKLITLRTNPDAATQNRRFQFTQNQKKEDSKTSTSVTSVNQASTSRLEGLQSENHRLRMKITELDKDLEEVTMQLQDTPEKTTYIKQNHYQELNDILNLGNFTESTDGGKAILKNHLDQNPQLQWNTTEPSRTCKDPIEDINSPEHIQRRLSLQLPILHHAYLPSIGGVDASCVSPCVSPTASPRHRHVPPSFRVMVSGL

Row | Structure (SMILES) | EC50
1 | CN(C)c1nc(NC(=O)C2Cc3ccccc3O2)c(C(=O)OC(C)(C)C)n1-c1ccccc1 (stereo not drawn) [Example 13, tert-butyl 4-[(2,3-dihydro-1-benzofuran-2-ylcarbonyl)amino]-2-(dimethylamino)-1-phenyl-1H-imidazole-5-carboxylate] | 5130 nM
2 | CCCc1c(C(=O)Nc2nc(N(C)C)n(-c3ccccc3)c2C(=O)OC(C)(C)C)cnn1-c1ccccc1 [Example 44, tert-butyl 2-(dimethylamino)-1-phenyl-4-{[(1-phenyl-5-propyl-1H-pyrazol-4-yl)carbonyl]amino}-1H-imidazole-5-carboxylate] | 2530 nM
3 | CN(C)c1nc(NC(=O)COCc2ccccc2)c(C(=O)OC(C)(C)C)n1-c1ccccc1 [Example 9, tert-butyl 4-{[(benzyloxy)acetyl]amino}-2-(dimethylamino)-1-phenyl-1H-imidazole-5-carboxylate] | 2470 nM
